From ChEMBL document CHEMBL2074554, “Expression of the apical conjugate export pump, Mrp2, in the polarized hepatoma cell line, WIF-B” (Hepatology, 1998)

Assays:
[1] = molecular target: ATP-binding cassette sub-family C member 2 (Rattus norvegicus, UniProt Q63120); experiment: TP_TRANSPORTER: inhibition of Fluo-3 uptake (Fluo-3: 4.4 uM, PSC 833: 10 uM) in bile canalicular membrane vesicles from Wistar rat; assay type: functional, cell membranes, Bile canalicular membrane vesicle
[2] = molecular target: ABCC2 (MRP2; ATP-binding cassette sub-family C member 2) (Rattus norvegicus, UniProt Q63120); experiment: TP_TRANSPORTER: inhibition of Fluo-3 secretion into apical vacuoles (Fluo-3: 1 uM, PSC 833: 50 uM) in WIF-B cells; assay type: functional, cell-based, WIF-B cell; conditions: probe Fluo-3 (1 uM)
[3] = substrate: Cc1ccc(N(CC(=O)O)CC(=O)O)c(OCCOc2cc(-c3c4cc(Cl)c(=O)cc-4oc4cc(O)c(Cl)cc34)ccc2N(CC(=O)O)CC(=O)O)c1; experiment: TP_TRANSPORTER: uptake in bile canalicular membrane vesicles from Wistar/TR- rat; assay type: functional, cell membranes, Bile canalicular membrane vesicle

Activity [1] | inhibition at 50 µM [2] [%] | Molecule | Km [3] [µM]
is not an inhibitor [-] | 50 | C/C=C/C[C@@H](C)C(=O)[C@H]1C(=O)N[C@@H](C(C)C)C(=O)N(C)CC(=O)N(C)[C@@H](CC(C)C)C(=O)N[C@@H](C(C)C)C(=O)N(C)[C@@H](CC(C)C)C(=O)N[C@@H](C)C(=O)N[C@H](C)C(=O)N(C)[C@@H](CC(C)C)C(=O)N(C)[C@@H](CC(C)C)C(=O)N(C)[C@@H](C(C)C)C(=O)N1C [VALSPODAR] | 
 |  | ATP-binding cassette sub-family C member 2 (Rattus norvegicus) (protein) MDKFCNSTFWDLSLLESPEADLPLCFEQTVLVWIPLGFLWLLAPWQLYSVYRSRTKRSSITKFYLAKQVFVVFLLILAAIDLSLALTEDTGQATVPPVRYTNPILYLCTWLLVLAVQHSRQWCVRKNSWFLSLFWILSVLCGVFQFQTLIRALLKDSKSNMAYSYLFFVSYGFQIVLLILTAFSGPSDSTQTPSVTASFLSSITFSWYDRTVLKGYKHPLTLEDVWDIDEGFKTRSVTSKFEAAMTKDLQKARQAFQRRLQKSQRKPEATLHGLNKKQSQSQDVLVLEEAKKKSEKTTKDYPKSWLIKSLFKTFHVVILKSFILKLIHDLLVFLNPQLLKLLIGFVKSSNSYVWFGYICAILMFAVTLIQSFCLQSYFQHCFVLGMCVRTTVMSSIYKKALTLSNLARKQYTIGETVNLMSVDSQKLMDATNYMQLVWSSVIQITLSIFFLWRELGPSILAGVGVMVLLIPVNGVLATKIRNIQVQNMKNKDKRLKIMNEILSGIKILKYFAWEPSFQEQVQGIRKKELKNLLRFGQLQSLLIFILQITPILVSVVTFSVYVLVDSANVLNAEKAFTSITLFNILRFPLSMLPMVTSSILQASVSVDRLERYLGGDDLDTSAIRRVSNFDKAVKFSEASFTWDPDLEATIQDVNLDIKPGQLVAVVGTVGSGKSSLVSAMLGEMENVHGHITIQGSTAYVPQQSWIQNGTIKDNILFGSEYNEKKYQQVLKACALLPDLEILPGGDMAEIGEKGINLSGGQKQRVSLARAAYQDADIYILDDPLSAVDAHVGKHIFNKVVGPNGLLAGKTRIFVTHGIHFLPQVDEIVVLGKGTILEKGSYRDLLDKKGVFARNWKTFMKHSGPEGEATVNNDSEAEDDDDGLIPTMEEIPEDAASLAMRRENSLRRTLSRSSRSSSRRGKSLKNSLKIKNVNVLKEKEKEVEGQKLIKKEFVETGKVKFSIYLKYLQAVGWWSILFIILFYGLNNVAFIGSNLWLSAWTSDSDNLNGTNNSSSHRDMRIGVFGALGLAQGICLLISTLWSIYACRNASKALHGQLLTNILRAPMRFFDTTPTGRIVNRFSGDISTVDDLLPQTLRSWMMCFFGIAGTLVMICMATPVFAIIIIPLSILYISVQVFYVATSRQLRRLDSVTKSPIYSHFSETVTGLPIIRAFEHQQRFLAWNEKQIDINQKCVFSWITSNRWLAIRLELVGNLVVFCSALLLVIYRKTLTGDVVGFVLSNALNITQTLNWLVRMTSEAETNIVAVERISEYINVENEAPWVTDKRPPADWPRHGEIQFNNYQVRYRPELDLVLKGITCNIKSGEKVGVVGRTGAGKSSLTNCLFRILESAGGQIIIDGIDVASIGLHDLRERLTIIPQDPILFSGSLRMNLDPFNKYSDEEVWRALELAHLRSFVSGLQLGLLSEVTEGGDNLSIGQRQLLCLGRAVLRKSKILVLDEATAAVDLETDSLIQTTIRKEFSQCTVITIAHRLHTIMDSDKIMVLDNGKIVEYGSPEELLSNRGSFYLMAKEAGIENVNHTEL | 3.7
